Consider 7 molecules from patent publication US4021434A, “Sodium β-[2,6-dimethyl-3,5-bis(ethoxycarbonyl)-4-(3-nitrophenyl)-1,4-dihyd ropyridine-1-yl]ethyl sulfate” (Yamanouchi Pharmaceutical Co., Ltd., priority 1972, dated 1977).

Data set [1] deals with vertebral blood flow and coronary blood flow. Put plainly: Effects on mean blood pressure, vertebral blood flow and coronary blood flow, intravenous, dogs anesthetized with pentobarbital (Experiment 3, Table 3). The format is in vivo. As for the experimental part: Effects on mean blood pressure (hereinafter referred to as MBP), vertebral blood flow (hereinafter referred to as VBF) and coronary blood flow (hereinafter referred to as Cor.BF), when administered intravenously:
By using dogs anesthetized with pentobarbital, VBF and Cor. BF were measured with an electromagnetic flowmeter. Blood pressure at the femoral artery was measured.

Another data set can be described thus: physchem. Conditions: water.
Data set [2] is described as follows: Effects on MBP and partial oxygen pressure (PO2) in coronary venous blood, intra-duodenal administration (Experiment 4, Table 4).
Description: (§1) Antagonism against hypertensive action of norepinephrine and effects on MBP and partial oxygen pressure (referred to hereinafter as PO2) in coronary venous blood, in case of intra-duodenal administration:
(§2) By using dogs anesthetized by pentobarbital, blood pressure at the femoral artery was measured. […] Antagonism against hypertensive active in case of norepinephrine administration (3g/kg i.v.) was investigated also. Drugs were administered intra-duodenally.
In data set [3] the test system is partial oxygen pressure in coronary venous blood. Described as above.
Description: as §1, §2
Data set [4] relates to hypertensive action of norepinephrine. The data set can be described thus: Antagonism against hypertensive action of norepinephrine, intra-duodenal administration (Experiment 4, Table 5). It is filed as in vivo, dogs. The procedure: Drugs were administered intra-duodenally.
A further data set deals with cerebral circulation. Put plainly: Effect on cerebral circulation in dogs anesthetized by chloralose-urethane (Experiment 1, Table I). It is filed as in vivo.
In a further data set the test system is mice. Put plainly: in vivo. The format is in vivo.
The next data set in a line: in vivo. It is filed as in vivo. Conditions: mouse, in vivo, mice.
The mark [5] stands for this setting: 10 mg/kg i.d., Pre-administration (baseline).
Setting [6] is: 10 mg/kg i.d., 1/2 hour post-administration.
Where [7] appears, read: 10 mg/kg i.d., 1 hour post-administration.
The mark [8] stands for this setting: 10 mg/kg i.d., 2 hour post-administration.
The mark [9] stands for this setting: 10 mg/kg i.d., 3 hour post-administration.
Setting [10] is: 10 mg/kg i.d., 5 hour post-administration.
Where [11] appears, read: 10 mg/kg i.d., 8 hour post-administration.
Setting [12] is: 1 mg/kg i.d., Pre-administration (baseline).
[13] abbreviates: 1 mg/kg i.d., 1/2 hour post-administration.
Where [14] appears, read: 1 mg/kg i.d., 1 hour post-administration.
Setting [15] is: 1 mg/kg i.d., 2 hour post-administration.
[16] abbreviates: 1 mg/kg i.d., 3 hour post-administration.
The mark [17] stands for this setting: 1 mg/kg i.d., 5 hour post-administration.
Where [18] appears, read: 1 mg/kg i.d., 8 hour post-administration.

A word on the solubility: it is the dissolved amount per volume that the medium holds. The low end stands for a poorly soluble substance, the high end for a readily soluble substance. For the molecule `CCOC(=O)C1=C(C)N(CCOS(=O)(=O)[O-])C(C)=C(C(=O)OCC)C1c1cccc([N+](=O)[O-])c1.[Na+]` [D, sodium β-[2,6-dimethyl-3,5-bis(ethoxycarbonyl)-4-(3-nitrophenyl)-1,4-dihydropyridine-1-yl]-ethyl sulfate], the “Coronary Blood Flow Duration” value in [1] (0.1 mg/kg i.v.) was 20 min; in data set [1] (0.3 mg/kg i.v.), 60 min; in [1] (1 mg/kg i.v.) it was at least 120 min. For the same molecule, the results for the “Coronary Blood Flow Increase” value in data set [1] (0.1 mg/kg i.v.), in data set [1] (0.3 mg/kg i.v.) and in data set [1] (1 mg/kg i.v.) were 67 Δ%, 72 Δ% and 137 Δ%, respectively. Also, the “Mean Blood Pressure Decrease” value in data set [1] (0.1 mg/kg i.v.) is -5 ΔmmHg; in data set [1] (0.3 mg/kg i.v.), -12 ΔmmHg; in data set [1] (1 mg/kg i.v.), -35 ΔmmHg. Moreover, the “Vertebral Blood Flow Increase” value in [1] (0.1 mg/kg i.v.) is 21 Δ%; in data set [1] (0.3 mg/kg i.v.) it was 75 Δ%; in [1] (1 mg/kg i.v.), 169 Δ%. In data set [1] (administered intravenously), the “effects on cerebral and coronary blood flow and blood pressure (in words)” value was “excellent effects as increasing the cerebral blood flow and coronary blood flow and at the same time showed hypotensive activity”. Moreover, the “duration of activities (in words)” value in data set [1] (administered intravenously, compared with known compounds) was “prolonged for a long period of time when compared with known compounds”. The “water-solubility (in words)” value in “Water-solubility” was “excellent water-solubility”. In addition, the solubility in the data set “physchem” was around 400 mg/mL. Also, the MBP is recorded as 110 in [2] (setting [5]); -11 in data set [2] (10 mg/kg i.d., change, 1/2 hour post-administration); -21 in data set [2] (10 mg/kg i.d., change, 1 hour post-administration); -32 in [2] (10 mg/kg i.d., change, 2 hour post-administration); -43 in data set [2] (10 mg/kg i.d., change, 3 hour post-administration); -4.3 in data set [2] (10 mg/kg i.d., change, 5 hour post-administration). In addition, the MBP in [2] (10 mg/kg i.d., change, 8 hour post-administration) is given as -40. Moreover, the “PO2 in coronary venous blood” value in data set [3] (setting [6]) was determined as 34.7; in [3] (setting [7]) it was 37.2; in data set [3] (setting [8]), 39.7; in [3] (setting [9]), 43.3; in data set [3] (setting [10]) it was 43.2; in [3] (setting [11]), 40.0. The “PO2 in coronary venous blood” value in [3] (setting [5]) amounted to 17.8. The duration time entry in [3] (compared with compounds B or C) was “much longer than those of compounds B or C”. Also, in [3] (peroral (intra-duodenal), compared with compounds B or C), the “absorption in case of peroral administration” value is “more easily absorbed than compounds B or C”. The “Percent inhibition against increase of blood pressure caused by norepinephrin” value is listed as 69% in data set [4] (setting [6]); 84% in data set [4] (setting [7]); 89% in data set [4] (setting [8]); 89% in [4] (setting [9]); 85% in data set [4] (setting [10]); 79% in [4] (setting [11]).
`COC(=O)C1=C(C)NC(C)=C(C(=O)OC)C1c1ccccc1[N+](=O)[O-]` [C]: in the data set on cerebral circulation (0.01 mg/Kg i.v.), the “Carotid blood flow Duration” value is reported as 30 min, the “Carotid blood flow Increase” value is reported as 90%, the “Mean Blood Pressure Decrease” value is given as 28% and the “Regional Cerebral blood flow Duration” value was 30 min. Besides, in the data set on cerebral circulation (0.01 mg/Kg i.v.), the “Regional Cerebral blood flow Increase” value came out at 8.2 μV, the “Vertebral Blood Flow Increase” value is 120% and the “Vertebral blood flow Duration” value came out at 30 min.
Take `CCOCN1C(C)=C(C(=O)OCC)C(c2cccc([N+](=O)[O-])c2)C(C(=O)OCC)=C1C` [A, diethyl 1-ethoxymethyl-2,6-dimethyl-4-(3-nitrophenyl)-1,4-dihydropyridine-3,5-dicarboxylate]: the “MLD (Minimum lethal dose)” value with mice (i.p.) was above 3000 mg/kg. For the same molecule, the “MLD (Minimum lethal dose)” value in the data set with mice (p.o.) was above 5000 mg/kg. Besides, in the data set with cerebral circulation (0.1 mg/Kg i.v.), the “Carotid blood flow Duration” value is listed as 120 min, the “Carotid blood flow Increase” value is 80%, the “Mean Blood Pressure Decrease” value worked out at 9% and the “Regional Cerebral blood flow Duration” value is 120 min. Further, in the data set on cerebral circulation (0.1 mg/Kg i.v.), the “Regional Cerebral blood flow Increase” value came to 8.6 μV, the “Vertebral Blood Flow Increase” value turned out to be 120% and the “Vertebral blood flow Duration” value came to 100 min.
Regarding `COc1ccc(Cc2nccc3cc(OC)c(OC)cc23)cc1OC` [Papaverine], in the data set on cerebral circulation (1.0 mg/Kg i.v.), the “Carotid blood flow Duration” value was found to be 6 min, the “Carotid blood flow Increase” value came out at 120%, the “Mean Blood Pressure Decrease” value came to 18% and the “Regional Cerebral blood flow Duration” value amounted to 7 min. Moreover, in the data set with cerebral circulation (1.0 mg/Kg i.v.), the “Regional Cerebral blood flow Increase” value is reported as 8.2 μV, the “Vertebral Blood Flow Increase” value is 120% and the “Vertebral blood flow Duration” value was 6 min.
As to `CCOC(=O)C1=C(C)NC(C)=C(C(=O)OCC)C1c1ccccc1C(F)(F)F` [E, 3,5-Dicarboethoxy-1,4-dihydro-2,6-dimethyl-4-(2-trifluoromethylphenyl)pyridine], in data set [1] (0.001 mg/kg i.v.), the “Coronary Blood Flow Duration” value is 10 min, the “Mean Blood Pressure Decrease” value was -16 ΔmmHg and the “Vertebral Blood Flow Increase” value is reported as 74 Δ%. Besides, in data set [1] (0.01 mg/kg i.v.), the “Coronary Blood Flow Duration” value was 45 min, the “Mean Blood Pressure Decrease” value is -44 ΔmmHg and the “Vertebral Blood Flow Increase” value is 144 Δ%.
`CCOC(=O)C1=C(C)N(CC(=O)O)C(C)=C(C(=O)OCC)C1c1cccc([N+](=O)[O-])c1` [sodium α-[3,5-bis(ethoxycarbonyl)-2,6-dimethyl-4-(3'-nitrophenyl)-1,4-dihydro-1-pyridinyl]acetate]: the “water-solubility (in words)” value in the data set “Water-solubility” was “easily soluble in water”.
For orientation: LD50 means the dose at which mortality reaches 50%. Read a high LD50 as lower toxicity. For `CCOC(=O)C1=C(C)NC(C)=C(C(=O)OCC)C1c1cccc([N+](=O)[O-])c1` [B], the “Coronary Blood Flow Duration” value in data set [1] (0.001 mg/kg i.v.) was found to be 5 min; in data set [1] (0.01 mg/kg i.v.), 30 min. The entries for the “Coronary Blood Flow Increase” value in [1] (0.001 mg/kg i.v.) and in data set [1] (0.01 mg/kg i.v.) were 58 Δ% and 141 Δ%, respectively. In addition, the “Mean Blood Pressure Decrease” value in [1] (0.001 mg/kg i.v.) is -15 ΔmmHg; in data set [1] (0.01 mg/kg i.v.), -35 ΔmmHg; in the data set on cerebral circulation (0.01 mg/Kg i.v.), 29%. Further, the “Vertebral Blood Flow Increase” value in data set [1] (0.001 mg/kg i.v.) is reported as 20 Δ%; in data set [1] (0.01 mg/kg i.v.), 144 Δ%; in the data set on cerebral circulation (0.01 mg/Kg i.v.) it was 130%. For the same molecule, the “water-solubility (in words)” value in “Water-solubility” is recorded as “almost unsoluble in water”. Also, the MBP in [2] (setting [12]) was 101; in data set [2] (1 mg/kg i.d., change, 1/2 hour post-administration), -39; in data set [2] (1 mg/kg i.d., change, 1 hour post-administration), -43; in data set [2] (1 mg/kg i.d., change, 2 hour post-administration) it was -42; in data set [2] (1 mg/kg i.d., change, 3 hour post-administration), -32; in [2] (1 mg/kg i.d., change, 5 hour post-administration), -27. Also, the MBP in data set [2] (1 mg/kg i.d., change, 8 hour post-administration) was -12. Further, the “PO2 in coronary venous blood” value came to 34.6 in [3] (setting [13]); 37.7 in [3] (setting [14]); 39.3 in [3] (setting [15]); 38.9 in data set [3] (setting [16]); 32.7 in data set [3] (setting [17]); 25.0 in [3] (setting [18]). For the same molecule, in [3] (setting [12]), the “PO2 in coronary venous blood” value is on record as 17.4. Also, the “Percent inhibition against increase of blood pressure caused by norepinephrin” value came to 79% in [4] (setting [13]); 78% in data set [4] (setting [14]); 79% in data set [4] (setting [15]); 77% in [4] (setting [16]); 63% in data set [4] (setting [17]); 48% in data set [4] (setting [18]). Moreover, the LD50 was 525 mg/kg in the data set “in vivo” (ip) and 5000 mg/kg in the data set “in vivo” (po). The “Carotid blood flow Duration” value with cerebral circulation (0.01 mg/Kg i.v.) worked out at 30 min. Also, the “Carotid blood flow Increase” value in the data set on cerebral circulation (0.01 mg/Kg i.v.) is listed as 83%. In the data set on cerebral circulation (0.01 mg/Kg i.v.), the “Regional Cerebral blood flow Duration” value came to 30 min. Also, the “Regional Cerebral blood flow Increase” value in the data set with cerebral circulation (0.01 mg/Kg i.v.) is listed as 9.2 μV. Moreover, the “Vertebral blood flow Duration” value with cerebral circulation (0.01 mg/Kg i.v.) was determined as 30 min.
